Legend:
Test in all cases: Inhibition Assay of PI3K
[1] = target: Phosphatidylinositol 4,5-bisphosphate 3-kinase catalytic subunit alpha isoform (Homo sapiens, UniProt P42336)
[2] = target: Phosphatidylinositol 4,5-bisphosphate 3-kinase catalytic subunit beta isoform (Homo sapiens, UniProt P42338)
[3] = target: T1, Phosphatidylinositol 4,5-bisphosphate 3-kinase catalytic subunit delta isoform (Homo sapiens, UniProt O00329)
T1 sequence (O00329 whole entry): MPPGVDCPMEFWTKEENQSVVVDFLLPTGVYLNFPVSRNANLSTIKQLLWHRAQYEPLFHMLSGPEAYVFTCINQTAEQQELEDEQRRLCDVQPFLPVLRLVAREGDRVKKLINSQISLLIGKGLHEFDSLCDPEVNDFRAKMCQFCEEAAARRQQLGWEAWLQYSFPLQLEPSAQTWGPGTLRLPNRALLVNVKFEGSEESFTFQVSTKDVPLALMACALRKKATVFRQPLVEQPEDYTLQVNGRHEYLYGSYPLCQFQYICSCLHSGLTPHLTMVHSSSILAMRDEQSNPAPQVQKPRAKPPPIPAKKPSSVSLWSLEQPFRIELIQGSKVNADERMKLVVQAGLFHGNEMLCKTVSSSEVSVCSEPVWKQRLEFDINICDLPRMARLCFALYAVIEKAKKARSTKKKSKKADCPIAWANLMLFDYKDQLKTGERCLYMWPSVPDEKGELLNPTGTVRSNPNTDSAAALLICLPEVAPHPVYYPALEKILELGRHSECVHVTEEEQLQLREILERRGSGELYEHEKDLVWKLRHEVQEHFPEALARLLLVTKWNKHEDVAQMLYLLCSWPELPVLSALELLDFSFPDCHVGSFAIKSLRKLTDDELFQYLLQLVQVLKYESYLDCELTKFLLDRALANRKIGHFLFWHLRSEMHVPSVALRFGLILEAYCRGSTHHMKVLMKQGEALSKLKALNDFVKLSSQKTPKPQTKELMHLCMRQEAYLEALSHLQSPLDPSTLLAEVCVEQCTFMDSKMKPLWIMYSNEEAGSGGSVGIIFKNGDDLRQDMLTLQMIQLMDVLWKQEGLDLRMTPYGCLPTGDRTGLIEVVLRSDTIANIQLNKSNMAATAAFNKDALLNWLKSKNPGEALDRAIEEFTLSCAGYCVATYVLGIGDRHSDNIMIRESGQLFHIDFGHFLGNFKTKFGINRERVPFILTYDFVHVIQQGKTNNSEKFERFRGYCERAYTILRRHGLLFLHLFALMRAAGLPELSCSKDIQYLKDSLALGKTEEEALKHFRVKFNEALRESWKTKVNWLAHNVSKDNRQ

[4] = target: Phosphatidylinositol 4,5-bisphosphate 3-kinase catalytic subunit gamma isoform (Homo sapiens, UniProt P48736)

Measured: IC50

Phosphatidylinositol 4,5-bisphosphate 3-kinase catalytic subunit alpha isoform, sequence (P42336 whole entry, canonical isoform): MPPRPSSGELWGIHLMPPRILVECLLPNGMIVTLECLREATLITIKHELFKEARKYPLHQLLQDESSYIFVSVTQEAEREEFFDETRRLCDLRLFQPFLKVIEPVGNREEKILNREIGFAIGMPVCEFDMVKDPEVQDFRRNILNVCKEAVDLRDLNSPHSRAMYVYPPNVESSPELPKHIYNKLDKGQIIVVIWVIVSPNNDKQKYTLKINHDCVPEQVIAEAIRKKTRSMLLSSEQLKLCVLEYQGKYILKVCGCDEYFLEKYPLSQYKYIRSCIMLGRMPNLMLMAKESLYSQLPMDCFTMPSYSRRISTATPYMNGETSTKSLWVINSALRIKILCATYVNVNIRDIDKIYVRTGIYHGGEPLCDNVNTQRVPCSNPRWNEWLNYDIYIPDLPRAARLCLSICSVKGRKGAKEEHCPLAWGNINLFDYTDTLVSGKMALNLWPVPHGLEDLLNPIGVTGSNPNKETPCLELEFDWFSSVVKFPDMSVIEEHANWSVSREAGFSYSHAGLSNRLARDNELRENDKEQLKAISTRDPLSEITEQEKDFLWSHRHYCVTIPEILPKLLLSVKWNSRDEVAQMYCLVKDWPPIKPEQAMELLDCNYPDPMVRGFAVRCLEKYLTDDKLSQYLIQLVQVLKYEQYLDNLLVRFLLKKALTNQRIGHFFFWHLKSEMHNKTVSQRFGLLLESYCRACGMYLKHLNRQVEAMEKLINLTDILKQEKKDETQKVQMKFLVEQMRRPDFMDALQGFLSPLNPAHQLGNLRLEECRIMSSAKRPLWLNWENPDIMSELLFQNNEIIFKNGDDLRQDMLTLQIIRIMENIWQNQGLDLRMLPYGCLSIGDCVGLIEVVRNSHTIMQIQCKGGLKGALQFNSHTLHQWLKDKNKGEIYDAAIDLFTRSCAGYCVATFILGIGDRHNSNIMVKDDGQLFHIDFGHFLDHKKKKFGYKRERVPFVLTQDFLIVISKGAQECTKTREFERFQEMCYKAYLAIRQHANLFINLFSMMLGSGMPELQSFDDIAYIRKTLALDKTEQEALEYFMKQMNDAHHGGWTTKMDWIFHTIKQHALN
Phosphatidylinositol 4,5-bisphosphate 3-kinase catalytic subunit gamma isoform, sequence (P48736 whole entry, canonical isoform): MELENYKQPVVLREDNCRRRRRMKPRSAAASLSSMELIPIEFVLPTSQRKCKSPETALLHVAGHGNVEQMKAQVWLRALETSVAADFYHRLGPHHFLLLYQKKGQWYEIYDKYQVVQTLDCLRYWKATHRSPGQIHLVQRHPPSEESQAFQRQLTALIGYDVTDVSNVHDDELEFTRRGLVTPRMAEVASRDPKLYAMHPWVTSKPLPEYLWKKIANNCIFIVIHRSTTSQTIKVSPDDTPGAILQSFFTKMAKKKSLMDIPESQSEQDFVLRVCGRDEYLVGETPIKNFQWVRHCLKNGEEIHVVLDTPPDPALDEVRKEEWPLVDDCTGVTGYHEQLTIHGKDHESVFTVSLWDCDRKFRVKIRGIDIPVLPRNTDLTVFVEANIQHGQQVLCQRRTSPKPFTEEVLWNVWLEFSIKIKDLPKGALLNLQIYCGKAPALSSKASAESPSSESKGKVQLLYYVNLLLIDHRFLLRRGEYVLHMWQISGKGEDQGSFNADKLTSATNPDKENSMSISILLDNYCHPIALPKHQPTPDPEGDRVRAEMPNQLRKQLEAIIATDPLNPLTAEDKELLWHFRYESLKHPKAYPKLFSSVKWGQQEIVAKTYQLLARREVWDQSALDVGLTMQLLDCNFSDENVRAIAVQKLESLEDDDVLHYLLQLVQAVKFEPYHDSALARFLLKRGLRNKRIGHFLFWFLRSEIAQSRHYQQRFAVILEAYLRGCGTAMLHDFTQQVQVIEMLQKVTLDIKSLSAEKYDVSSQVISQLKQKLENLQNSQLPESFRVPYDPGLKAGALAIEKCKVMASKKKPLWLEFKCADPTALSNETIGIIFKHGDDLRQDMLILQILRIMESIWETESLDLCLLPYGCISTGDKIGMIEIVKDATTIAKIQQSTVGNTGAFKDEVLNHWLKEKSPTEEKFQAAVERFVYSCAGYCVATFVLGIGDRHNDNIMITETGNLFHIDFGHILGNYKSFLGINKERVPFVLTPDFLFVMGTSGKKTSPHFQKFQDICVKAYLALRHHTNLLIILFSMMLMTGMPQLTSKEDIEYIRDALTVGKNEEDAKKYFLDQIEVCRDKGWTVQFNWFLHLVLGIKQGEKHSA
Phosphatidylinositol 4,5-bisphosphate 3-kinase catalytic subunit beta isoform, sequence (P42338 whole entry, canonical isoform): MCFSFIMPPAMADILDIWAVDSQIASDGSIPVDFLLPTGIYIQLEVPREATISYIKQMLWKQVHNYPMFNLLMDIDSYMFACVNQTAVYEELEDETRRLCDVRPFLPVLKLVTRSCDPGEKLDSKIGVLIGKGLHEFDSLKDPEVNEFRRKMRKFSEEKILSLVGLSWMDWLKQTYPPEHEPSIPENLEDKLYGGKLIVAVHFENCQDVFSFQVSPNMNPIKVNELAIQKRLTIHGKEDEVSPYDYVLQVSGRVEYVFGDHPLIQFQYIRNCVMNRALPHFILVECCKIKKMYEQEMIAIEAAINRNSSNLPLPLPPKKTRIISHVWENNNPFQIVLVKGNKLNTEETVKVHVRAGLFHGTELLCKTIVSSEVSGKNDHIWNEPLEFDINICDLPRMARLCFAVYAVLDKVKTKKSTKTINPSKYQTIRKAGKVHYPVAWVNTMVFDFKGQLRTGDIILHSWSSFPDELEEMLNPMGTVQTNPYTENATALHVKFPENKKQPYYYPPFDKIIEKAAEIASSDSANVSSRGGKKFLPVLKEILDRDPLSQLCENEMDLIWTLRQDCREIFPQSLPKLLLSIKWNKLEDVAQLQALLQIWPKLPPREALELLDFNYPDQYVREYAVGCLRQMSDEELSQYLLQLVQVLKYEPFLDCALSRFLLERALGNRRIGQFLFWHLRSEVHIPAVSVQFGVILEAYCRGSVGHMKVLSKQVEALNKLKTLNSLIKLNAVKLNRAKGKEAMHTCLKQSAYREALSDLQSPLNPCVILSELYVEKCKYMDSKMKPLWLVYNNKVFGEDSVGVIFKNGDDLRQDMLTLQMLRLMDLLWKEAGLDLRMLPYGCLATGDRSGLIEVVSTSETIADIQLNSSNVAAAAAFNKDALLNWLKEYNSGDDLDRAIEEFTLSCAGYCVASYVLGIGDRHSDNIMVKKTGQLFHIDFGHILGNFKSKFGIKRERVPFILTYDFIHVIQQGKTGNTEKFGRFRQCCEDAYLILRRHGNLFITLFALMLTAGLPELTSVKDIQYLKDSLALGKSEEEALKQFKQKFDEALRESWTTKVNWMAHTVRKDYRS

Nc1nsc2ccc(-c3ccc4nccc(-c5ccncc5)c4c3)cc12 [US11547697, Compound 12]
> 10 µM: all assays above

CC(=O)Nc1cn2cc(-c3ccc4nccc(-c5ccncc5)c4c3)ccc2n1 [US11547697, Compound 19]
> 10 µM: all assays above

Nc1nc2cc(-c3cnc4ncc(-c5ccncc5)n4c3)ccc2o1 [US11547697, Compound 61]
> 10 µM: all assays above

Cc1nc2ccc(-c3ccc4oc(N)nc4c3)cn2c1C(=O)N1CCN(C)CC1 [US11547697, Compound 91]
> 10 µM: all assays above

Cc1nc2ccc(-c3ccc4oc(N)nc4c3)cn2c1C(=O)N1CCOCC1 [US11547697, Compound 92]
> 10 µM: all assays above

Nc1nc2cc(-c3cn4c(C(=O)N5CCOCC5)cnc4cn3)ccc2o1 [US11547697, Compound 122]
> 10 µM: all assays above

CC(=O)Nc1nc2ccc(-c3nc(N4CCOCC4)c4sc(CN5CCN(S(C)(=O)=O)CC5)cc4n3)cc2s1 [US11547697, Compound 130]
> 10 µM: all assays above

Nc1ncc(-c2ccc3oc(N)nc3c2)cn1 [US11547697, Compound 233]
> 10 µM: [1] | [2] | [3]

Nc1nc2cc(-c3cccc4[nH]nc(N)c34)ccc2o1 [US11547697, Compound 236]
> 10 µM: [1] | [2] | [4]

CC(=O)Nc1nc2cc(-c3ccc4oc(N)nc4c3)ccc2o1 [US11547697, Compound 244]
> 10 µM: all assays above

Nc1nc2ccc(-c3ccc4nc(N)oc4c3)cc2o1 [US11547697, Compound 246]
> 10 µM: all assays above

Nc1cn2cc(-c3ccc4nc(N)oc4c3)ccc2n1 [US11547697, Compound 247]
> 10 µM: [1] | [3]

CC(=O)Nc1nc2cc(-c3ccc4oc(N)nc4c3)ccc2s1 [US11547697, Compound 250]
> 10 µM: [1] | [2] | [3]

Nc1nc2cc(-c3ccc4nnc(C(=O)N5CCOCC5)n4c3)ccc2o1 [US11547697, Compound 282]
> 10 µM: all assays above

C[C@H]1CN(c2cnc3ccc(-c4cccc5nc(N)oc45)cc3n2)CCN1 [US11547697, Compound 310]
> 10 µM: all assays above

Nc1nc2cc(-c3ccc4ncn(C(=O)N5CCOCC5)c4c3)ccc2o1 [US11547697, Compound 317]
> 10 µM: all assays above

C[C@H]1CN(c2cnc3ccc(-c4cccc5c(N)nsc45)cc3n2)CCN1 [US11547697, Compound 321]
> 10 µM: all assays above

C[C@H]1CN(c2cnc3cccc(-c4ccc5oc(N)nc5c4)c3n2)CCN1 [US11547697, Compound 342]
> 10 µM: all assays above

C[C@H]1CN(c2cnc3cccc(-c4ccc5nc(N)oc5c4)c3n2)CCN1 [US11547697, Compound 343]
> 10 µM: [1] | [3] | [4]

Cc1c(-c2ccc3oc(N)nc3c2)ccc2ncc(C(=O)N3CCOCC3)n12 [US11547697, Compound 349]
> 10 µM: all assays above

Cc1cc2oc(N)nc2cc1-c1ccc2ncc(C(=O)N3CCOCC3)n2c1 [US11547697, Compound 352]
> 10 µM: all assays above

Cc1c(-c2ccc3ncc(N4CC(N5CCOCC5)C4)nc3c2)ccc2oc(N)nc12 [US11547697, Compound 362]
> 10 µM: all assays above

C[C@H]1CN(c2cnc3ccc(-c4cccc5c(N)noc45)cc3n2)CCN1 [US11547697, Compound 363]
> 10 µM: all assays above

CCN1CCN(c2cnc3ccc(-c4ccc5oc(N)nc5c4)cc3n2)C(=O)C1 [US11547697, Compound 391]
> 10 µM: [2] | [3] | [4]

Nc1nc2cc(-c3ccc4ncc(N5CCN(CC6CC6)CC5=O)nc4c3)ccc2o1 [US11547697, Compound 393]
> 10 µM: [2] | [3] | [4]

O=C(c1cnc2ccc(-c3ccc4oc(Nc5ccccc5)nc4c3)cn12)N1CCOCC1 [US11547697, Compound 407]
> 10 µM: [1] | [3] | [4]

O=C(c1cnc2ccc(-c3ccc4oc(NC5CC5)nc4c3)cn12)N1CCOCC1 [US11547697, Compound 409]
> 10 µM: [2] | [3] | [4]

Nc1ncc(-c2ccc3ncc(C(=O)N4CCOCC4)n3c2)cc1C(F)(F)F [US11547697, Compound 410]
> 10 µM: [2] | [3] | [4]

Nc1nc2nc(-c3ccc4ncc(C(=O)N5CCOCC5)n4c3)ccc2o1 [US11547697, Compound 412]
> 10 µM: [2] | [3] | [4]

COc1ncc(-c2ccc3ncc(C(=O)N4CCOCC4)n3c2)cc1N [US11547697, Compound 414]
> 10 µM: [2] | [3] | [4]

Nc1cc(-c2ccc3ncc(C(=O)N4CCOCC4)n3c2)cnc1Cl [US11547697, Compound 415]
> 10 µM: [2] | [3] | [4]

Nc1nc2cc(-c3cc(F)c4ncc(C(=O)N5CCOCC5)n4c3)ccc2o1 [US11547697, Compound 438]
> 10 µM: [2] | [3] | [4]

Nc1nc2ccc(-c3cc(F)c4ncc(C(=O)N5CCOCC5)n4c3)cc2o1 [US11547697, Compound 439]
> 10 µM: [2] | [3] | [4]

COc1ccc(-c2ccc3ncc(C(=O)N4CCOCC4)n3c2)cc1S(=O)(=O)Nc1ccccc1 [US11547697, Compound 444]
> 10 µM: [2] | [3] | [4]

CN1CCN(n2cnc3ccc(-c4ccc5oc(N)nc5c4)cc3c2=O)CC1 [US11547697, Compound 446]
> 10 µM: [2] | [3] | [4]

O=C(c1cnc2ccc(-c3cncc(S(=O)(=O)Nc4ccccc4)c3)cn12)N1CCOCC1 [US11547697, Compound 447]
> 10 µM: [2] | [3] | [4]

CNS(=O)(=O)c1cncc(-c2ccc3ncc(C(=O)N4CCOCC4)n3c2)c1 [US11547697, Compound 450]
> 10 µM: [2] | [3] | [4]

CS(=O)(=O)Nc1cc(-c2ccc3ncc(C(=O)N4CCOCC4)n3c2)ccc1Cl [US11547697, Compound 460]
> 10 µM: [2] | [3] | [4]

Nc1nsc2c(-c3ccc4ncc(C(=O)N5CCOCC5)n4c3)cccc12 [US11547697, Compound 474]
> 10 µM: [2] | [3] | [4]

Nc1nc2cccc(-c3ccc4ncc(C(=O)N5CCOCC5)n4c3)c2s1 [US11547697, Compound 485]
> 10 µM: [2] | [3] | [4]

Nc1nsc2cc(-c3ccc4ncc(C(=O)N5CCOCC5)n4c3)ccc12 [US11547697, Compound 489]
> 10 µM: [2] | [3] | [4]

CC1(C)COCCN1C(=O)c1cnc2ccc(-c3ccc4oc(N)nc4c3)cn12 [US11547697, Compound 514]
> 10 µM: [2] | [3] | [4]

O=C(c1cnc2ccc(-c3cnc(Cl)c4[nH]ncc34)cn12)N1CCOCC1 [US11547697, Compound 516]
> 10 µM: [2] | [3] | [4]
